Results: patent US20110071177A1, “FUNGICIDAL ACTIVE SUBSTANCE COMBINATION” (Bayer CropScience AG, priority 2005, published 2011)

Test system: Sphaerotheca fuliginea
Test: Sphaerotheca test (cucumber) / protective
Format: in vivo, Sphaerotheca fuliginea on cucumber
Settings: application rate 4 ppm, evaluation 7 days after inoculation
Method: Solvents: 24.5 parts by weight of acetone • 24.5 parts by weight of dimethylacetamide Emulsifier: 1 part by weight of alkylaryl polyglycol ether To produce a suitable preparation of active compound, 1 part by weight of active compound or active compound combination is mixed with the stated amounts of solvents and emulsifier, and the concentrate is diluted with water to the desired concentration, or a commercial formulation of active compound or active compound combination with water is diluted with water to the desired concentration. To test for protective activity, young plants are sprayed with the active compound preparation at the stated application rate. After the spray coating has dried on, the plants are inoculated with an aqueous spore suspension of Sphaerotheca fuliginea. The plants are then placed in a greenhouse at about 23° C. and a relative atmospheric humidity of about 70%. Evaluation is carried out 7 days after inoculation. Here, 0% means an efficacy which corresponds to that of the control, whereas an efficacy of 100% means that no infestation is observed.

## CO/N=C(/C(=O)OC)c1ccccc1CO/N=C(\C)c1cccc(C(F)(F)F)c1 [2-[α-{[(α-methyl-3-trifluoromethylbenzyl)imino]oxy}-o-tolyl]glyoxylic acid methyl ester O-methyloxime]
  % efficacy: 10%
